According to PubChem BioAssay AID1645866 (Buhrlage Lab, Dana-Farber Cancer Institute and Novartis …, 2021):
Activity calls are given as the source filed them.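 Rule for the calls: active = in confirmatory dose-response testing, peak deubiquitinase inhibition of 30% or more; inactive = the rest.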

These compounds were tested against Ubiquitin carboxyl-terminal hydrolase 28 (Homo sapiens) (UniProt Q96RU2) (assay: Concentration-response biochemical assay confirming initial hits as inhibitors of ubiquitin-specific protease 28 (AID 1645866)). Conditions: purified USP28, ubiquitin-rhodamine fluorescence, 30 min.
Chain of Ubiquitin carboxyl-terminal hydrolase 28 (Homo sapiens) (Q96RU2 whole entry, looked up): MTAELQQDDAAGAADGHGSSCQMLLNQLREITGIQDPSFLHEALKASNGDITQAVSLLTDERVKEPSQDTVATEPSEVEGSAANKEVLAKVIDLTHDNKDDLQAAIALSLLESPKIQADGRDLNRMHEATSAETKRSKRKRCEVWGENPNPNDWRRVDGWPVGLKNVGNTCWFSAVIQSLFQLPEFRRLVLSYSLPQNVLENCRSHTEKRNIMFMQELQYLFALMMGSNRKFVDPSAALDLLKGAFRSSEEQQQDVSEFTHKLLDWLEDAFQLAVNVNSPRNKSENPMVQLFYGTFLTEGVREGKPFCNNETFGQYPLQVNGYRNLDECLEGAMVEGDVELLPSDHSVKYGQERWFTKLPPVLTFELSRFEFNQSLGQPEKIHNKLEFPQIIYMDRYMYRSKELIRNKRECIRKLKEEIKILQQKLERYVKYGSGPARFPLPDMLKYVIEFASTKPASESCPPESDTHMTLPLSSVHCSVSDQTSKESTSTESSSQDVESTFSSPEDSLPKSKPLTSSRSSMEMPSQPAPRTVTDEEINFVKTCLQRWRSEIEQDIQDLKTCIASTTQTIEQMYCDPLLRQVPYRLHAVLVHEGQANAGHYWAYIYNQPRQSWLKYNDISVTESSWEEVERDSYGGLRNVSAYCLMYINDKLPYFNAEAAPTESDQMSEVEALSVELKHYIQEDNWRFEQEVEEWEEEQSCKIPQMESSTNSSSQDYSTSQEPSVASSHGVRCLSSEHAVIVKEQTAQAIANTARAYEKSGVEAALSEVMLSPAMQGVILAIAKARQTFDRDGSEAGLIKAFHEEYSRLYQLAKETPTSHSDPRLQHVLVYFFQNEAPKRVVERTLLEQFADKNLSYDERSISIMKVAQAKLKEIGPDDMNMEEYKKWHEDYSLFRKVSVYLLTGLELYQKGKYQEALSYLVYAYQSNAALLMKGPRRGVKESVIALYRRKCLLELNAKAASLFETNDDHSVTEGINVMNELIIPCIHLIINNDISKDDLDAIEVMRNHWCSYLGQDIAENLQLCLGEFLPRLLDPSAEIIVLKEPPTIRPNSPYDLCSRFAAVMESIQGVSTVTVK

Compound	IC50
O=C(Cn1c(=O)n(Cc2ccc(F)cc2)c(=O)c2sccc21)Nc1cccc(Cl)c1	11.4 µM
COc1cccc(-c2cc(=O)[nH]c(Nc3nc(C)c4ccccc4n3)n2)c1	25.9 µM
COc1ccc(CC(=O)Nc2cccc(-c3nc4ncccc4o3)c2)cc1OC	> 50 µM (inactive)
C/C=C1/C2=CCCN3C(=O)O[C@H]([C@H]1O)[C@H]23	2.94 µM
CC(=O)c1ccc(NC(=O)c2ccc(N3CCCCS3(=O)=O)cc2Cl)cc1	26.6 µM
O=C(NCc1cccnc1)c1cnn2c(C(F)(F)F)cc(-c3ccc(F)cc3)nc12	47.4 µM
O=C(Nc1ccccc1Sc1ncc(-c2ccc(Cl)cc2)cn1)c1ccco1	23.6 µM
CC(=O)N1Cc2ccccc2CC2(CCCN(CC3CCOCC3)C2)C1 (stereo not given)	> 50 µM (inactive)
Oc1ccc(Br)cc1CNc1ccc(F)cc1	18.3 µM
COc1ccc(CCNC(=O)CCn2c(=O)c3ccccc3n(Cc3ccc(C)cc3)c2=O)cc1OC	22 µM
Cc1cccc(C(=O)N2CCN3Cc4ccccc4N(C)CC3C2)c1 (stereo not given)	> 50 µM (inactive)
O=C1N(Cc2cccc(Cl)c2)CCN1c1ccc2c(c1)CCC2	18.2 µM
COc1ccc(NC(=O)CS(=O)(=O)c2[nH]c(-c3ccc(C)cc3)nc2-c2ccccc2)cc1Cl	31 µM
c1ccc2c(c1)CCc1c-2nc2ccccc2c1N1CCOCC1	> 50 µM (inactive)
CC1=C(C)C(c2c(-c3ccc(C)cc3)[nH]c3ccccc23)N(C(C)(C)C)C1=O (stereo not given)	2.25 µM
COCCCNC(=O)c1ccc(Cn2c(=O)c3ccccc3n(CC(=O)NC3CCCCC3)c2=O)cc1	23.5 µM
Cc1cccc(N2C(=O)/C(=C\c3ccc4c(c3)OCCO4)c3ccccc3C2=O)c1	19.2 µM
COc1cccc(NC(=O)C2Cn3ccnc3C3(CCN(C(C)=O)CC3)O2)c1 (stereo not given)	> 50 µM (inactive)
COc1ccc(NC(=O)c2nnn(-c3ccccc3)c2C)cc1OC	11.6 µM
CS(=O)(=O)NC1CCCN(C(=O)Nc2cccc3ccccc23)C1 (stereo not given)	30.5 µM
COC(=O)c1ccc2c(=O)n(CCCCCC(=O)NCc3cccc(Cl)c3)c(=O)[nH]c2c1	2.05 µM
CC(OC(=O)CNC(=O)c1ccc(Br)cc1)C(=O)Nc1ccc2c(c1)OCCO2 (stereo not given)	25.8 µM
Nc1nonc1C(=O)NCCNCc1cccc(OCc2ccc(Cl)cc2)c1	32.6 µM
COc1ccccc1OCC(=O)Nc1ccc2c(c1)CCC(=O)N2Cc1ccccc1	> 50 µM (inactive)
O=C(Nc1ccc2c(c1)OCO2)C1CCN(Cc2nc3ccccc3s2)CC1	2.4 µM

Compound	IC50
NC(=O)C1(N2CCCCC2)CCN(C(=O)c2[nH]nc3c2CCc2ccccc2-3)CC1	> 50 µM (inactive)
Cc1nn(Cc2ccccc2)c(C)c1C(=O)NC1CCCc2ccccc21 (stereo not given)	5.14 µM
COc1ccc(CC(=O)Nc2nc(-c3ccco3)c(-c3ccco3)s2)cc1	> 5 µM (inactive)
O=C1C=C(O)c2c(O)cccc2C1=O	15.7 µM
O=C(Nc1cccc(OC(=O)c2ccc(Cl)cc2)c1)c1ccc(Cl)cc1	41.2 µM
O=C(CN1C(=O)C2CCCC2=Nc2ccccc21)Nc1cc(F)ccc1F (stereo not given)	13.5 µM
O=C(Nc1nc2c(ccc3ccccc32)s1)c1cccc(Br)c1	9.32 µM
Fc1cccc(Cn2cc(-c3noc(-c4cccnc4)n3)nn2)c1	29.1 µM
O=C(NCCc1ccccn1)c1cn2ccnc(-c3ccc(F)cc3)c2n1	> 50 µM (inactive)
Cc1nnc(C(=O)Nc2ccc(C(=O)NCc3ccccc3C)cc2)s1	16.2 µM
Cc1ccnc(NC(=O)c2ccn(COc3ccc(Cl)cc3)n2)c1	21.9 µM
CC1CCCCN1CCCNC(=O)c1ccc(N2CCc3ccccc32)s1 (stereo not given)	10.6 µM
COc1cccc(NC(=O)C2C3C=CC4(O3)C2C(=O)N(CCc2ccccc2Cl)C4C(=O)NC2CCCCC2)c1 (stereo not given)	26.1 µM
O=C1CC(c2ccco2)Cc2[nH]c(=O)c(C(=O)Nc3ccc(Cl)cc3)cc21 (stereo not given)	3.08 µM
CCn1c(CN2CCCC(c3nc(-c4cccnc4)n[nH]3)C2)nc2ccccc21 (stereo not given)	3.13 µM
O=C(NCc1ccccc1)c1ccc2c(=O)n(-c3ccccc3)c(=O)[nH]c2c1	18.6 µM
COc1c(O)cc(CC(=O)O)c(C(C)=O)c1O	10.5 µM
O=C(NCCc1ccco1)c1ccc(N2CCOc3ccccc32)s1	22.4 µM
O=C(CSc1ncnc2c1oc1ccccc12)NC1CCCC1	20.5 µM
COC(=O)c1c(C)[nH]c(C(=O)C(C)OC(=O)CCC2CCCC2)c1C (stereo not given)	1.47 µM
COc1ccc(CC(NC(C)=O)C(=O)NC2CCN(c3c(Cc4ccccc4)c(C)nc4ncnn34)CC2)cc1OC (stereo not given)	> 50 µM (inactive)
COc1ccc(-c2cc3c(=O)n(CC(=O)Nc4ccccc4F)ccn3n2)cc1OC	33 µM
O=C(Nc1cccc(F)c1)c1ncoc1-c1ccco1	> 50 µM (inactive)
NS(=O)(=O)c1cccc(NS(=O)(=O)c2ccc(/C=C/C(=O)OCC(=O)c3ccc(Br)cc3)cc2)c1	> 50 µM (inactive)
O=C1N[C@@H](Cc2ccccc2)C(=O)N2[C@H]3Nc4ccccc4[C@@]3([C@]34C[C@H]5C(=O)N[C@@H](Cc6ccccc6)C(=O)N5[C@H]3Nc3ccccc34)C[C@@H]12	29.4 µM
